Source: patent publication US9205085B2, “Tricyclic amino containing compounds for treatment or prevention of symptoms associated with endocrine dysfunction” (Emory University, priority 2011, dated 2015)
Several values for one entry are separate records, joined by “and”; a condition that tells them apart may be missing. Identical values can stand only once. Blank lines part the entries; values can stand above or below the compound they belong to.

Legend:
SDF-1/CXCR4 [1] = biological target: T1, SDF-1/CXCR4 (Homo sapiens (Human), UniProt P61073); experiment: IC50 vs SDF-1 (table of specific compounds); assay type: binding
T1 sequence (P61073 whole entry): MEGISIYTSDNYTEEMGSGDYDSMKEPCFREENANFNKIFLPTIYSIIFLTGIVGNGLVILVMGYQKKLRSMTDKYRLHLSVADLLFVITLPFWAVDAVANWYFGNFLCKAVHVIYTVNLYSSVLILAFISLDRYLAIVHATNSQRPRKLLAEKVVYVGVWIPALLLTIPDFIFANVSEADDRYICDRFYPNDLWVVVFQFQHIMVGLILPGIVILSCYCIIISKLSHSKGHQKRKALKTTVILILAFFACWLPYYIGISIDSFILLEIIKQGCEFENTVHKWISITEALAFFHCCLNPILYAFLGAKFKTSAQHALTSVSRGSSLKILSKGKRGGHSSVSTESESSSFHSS

SDF-1/CXCR4 [2] = biological target: T1, SDF-1/CXCR4; experiment: cAMP assay (SDF-1/CXCR4-mediated cAMP reduction); assay type: cell-based; conditions: for concentration effective in counteracting/blocking SDF-1 function: cAMP reduction by SDF-1; for effect of SDF-1 on cAMP reduction: pre-treatment with compound, SDF-1 EC80 150 ng/ml
Description: Because the major signaling pathway of CXCR4/SDF-1 involves the pertussis toxin-sensitive G protein Gi, compounds described herein were tested as to whether they inhibited SDF-1/CXCR4-mediated cAMP reduction. The absorption increase at 665 nm was determined by varying the concentration of SDF-1 (0-200 ng/ml) to determine EC80 to be 150 ng/ml.

[3] = 5-day repeat dose study in cynomolgus monkeys; assay type: in vivo
Description: (§1) In initial studies, three groups of rats (5 males and 5 females per group) were dosed with 0, 250 and 600 mg/kg of MSX-122 orally once per day for 28 days. […] A 5-day repeat dose study was carried out in two non-naïve cynomolgus monkeys (1 male and 1 female) and two naïve cynomolgus monkeys (1 male and 1 female) dosed with 1,000 and 2,000 mg/kg, respectively, orally once per day for 5 days.

[4] = Initial pharmacokinetic study in mice; assay type: in vivo; conditions: intraperitoneally (IP) and orally
Excerpt: (§2) Oral bioavailability and sustained plasma exposure was consistently observed in multiple species for certain compounds.

[5] = biological target: SDF-1 binding domain of CXCR4 (Homo sapiens (Human), UniProt P61073); experiment: Competitive binding assay against biotin-labeled TN14003; conditions: competition with biotin-labeled TN14003; read-out: Effective concentrations (EC50)
SDF-1 binding domain of CXCR4, sequence (P61073 whole entry, the tested form may be a part): as the sequence (P61073 whole entry) above
Excerpt: Aa competitive binding assay using biotin-labeled TN14003 and streptavidin-conjugated rhodamine was developed to determine the binding efficiency of new chemical entities to the SDF-1 binding domain of CXCR4.

hERG channel = hERG channel (Homo sapiens (Human), UniProt Q12809); experiment: hERG channel current (IKr) inhibition; assay type: biochemical
hERG channel, sequence (Q12809 whole entry): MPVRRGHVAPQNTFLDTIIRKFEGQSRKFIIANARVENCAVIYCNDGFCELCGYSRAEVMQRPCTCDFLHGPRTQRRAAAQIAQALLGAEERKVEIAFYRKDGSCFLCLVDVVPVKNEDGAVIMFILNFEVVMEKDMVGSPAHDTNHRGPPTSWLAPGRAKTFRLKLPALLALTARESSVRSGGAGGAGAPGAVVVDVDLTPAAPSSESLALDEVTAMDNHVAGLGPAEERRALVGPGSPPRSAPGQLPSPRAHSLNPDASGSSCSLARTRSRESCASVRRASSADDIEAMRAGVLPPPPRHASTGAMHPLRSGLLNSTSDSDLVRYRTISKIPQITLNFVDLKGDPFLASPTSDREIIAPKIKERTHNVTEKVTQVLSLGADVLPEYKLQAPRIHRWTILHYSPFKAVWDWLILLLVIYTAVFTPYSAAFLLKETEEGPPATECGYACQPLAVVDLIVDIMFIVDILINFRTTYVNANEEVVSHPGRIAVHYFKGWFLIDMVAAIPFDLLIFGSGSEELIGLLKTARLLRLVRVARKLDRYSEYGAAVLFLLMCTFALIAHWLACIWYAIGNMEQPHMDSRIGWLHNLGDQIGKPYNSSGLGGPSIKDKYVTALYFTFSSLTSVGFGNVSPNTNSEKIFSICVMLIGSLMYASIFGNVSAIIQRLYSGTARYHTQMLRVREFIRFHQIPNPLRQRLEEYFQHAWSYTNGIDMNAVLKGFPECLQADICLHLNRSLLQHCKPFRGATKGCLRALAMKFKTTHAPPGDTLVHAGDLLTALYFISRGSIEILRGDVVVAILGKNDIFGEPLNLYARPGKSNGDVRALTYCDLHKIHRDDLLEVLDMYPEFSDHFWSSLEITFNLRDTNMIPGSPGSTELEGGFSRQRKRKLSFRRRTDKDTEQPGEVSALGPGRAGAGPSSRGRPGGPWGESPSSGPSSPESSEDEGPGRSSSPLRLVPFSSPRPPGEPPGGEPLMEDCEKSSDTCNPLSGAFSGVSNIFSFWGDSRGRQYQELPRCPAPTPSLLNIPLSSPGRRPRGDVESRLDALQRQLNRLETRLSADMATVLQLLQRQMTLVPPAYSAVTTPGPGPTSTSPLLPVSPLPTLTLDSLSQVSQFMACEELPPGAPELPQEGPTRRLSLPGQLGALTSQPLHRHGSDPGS
Description: (§3) Sufficiently scorable cells in the presence of S9 were available for 4 hour treatment and in the absence of S9 for a 20 hour treatment. Finally, MSX-122 was tested for its potential to interfere with the rapid delayed rectifier current (IKr) in human ventricles through the cardiac potassium channel, hERG since inhibition of IKr has been reported to be the most common cause of cardiac action potential prolongation by non-cardiac drugs.

hERG channel (IKr) = hERG channel (IKr) (Homo sapiens (Human), UniProt Q12809); experiment: hERG channel current (IKr) inhibition; assay type: biochemical; conditions: human; 1 μM; read-out: inhibition of hERG channel currents
hERG channel (IKr), sequence (Q12809 whole entry): as above
Description: as §3

In vitro Ames test = assay type: cell-based
CHO cells = experiment: In vitro chromosome aberration screening test; assay type: cell-based; conditions: any dose level up to 2 mM, 4 hour with S9, 20 hour without S9
Description: as §3

[6] = Pharmacokinetic study in rats; assay type: in vivo; conditions: 10 mg/kg
Excerpt: as §2

hot flashes = experiment: Treatment of hot flashes in a patient; assay type: in vivo, human; conditions: person, 50 mg/day oral, after third treatment
Description: An approximately 70 kg person with a history of aggressive high grade serous carcinomy in their right fallopian tube, a complete hysterectomy and bilateral oophorectomy after previous treatments with VEGF-Trap and docetaxel, Carboplatin and taxol and doxil was treated with MSX-122, 50 mg/day oral.

[7] = Pharmacokinetic/pharmacodynamic study in cynomolgus monkeys; assay type: in vivo
Excerpt: as §2

[8] = 28-day oral toxicology study in rats; assay type: in vivo; conditions: 250 and 600 mg/kg orally once per day for 28 days
Description: as §1

[9] = cynomolgus monkeys, 1,000 and 2,000 mg/kg orally once per day for 5 days
[10] = cynomolgus monkeys, oral 5 and 10 mg/kg

IC50 (SDF-1/CXCR4 [1]): 1000 nM
Structure (SMILES): c1ccc(SCc2ccc(CSc3ccccc3)cc2)cc1 [MSX-211]

IC50 (SDF-1/CXCR4 [1]): 10 nM
Structure (SMILES): Clc1ccc(NCc2ccc(CNc3ncccn3)cc2)nc1 [MSX-219]

IC50 (SDF-1/CXCR4 [1]): 10 nM
Structure (SMILES): Clc1nc(Cl)nc(NCc2ccc(CNc3nc(Cl)nc(Cl)n3)cc2)n1 [MSX-190]

concentration effective in counteracting/blocking SDF-1 function (SDF-1/CXCR4 [2]): ~1000 nM
Structure (SMILES): c1cc(CN2CCCNCCNCCCNCC2)ccc1CN1CCCNCCNCCCNCC1 [AMD-3100, reference compound]
effect of SDF-1 on cAMP reduction (SDF-1/CXCR4 [2]): blocked significantly in a dose-dependent manner

IC50 (SDF-1/CXCR4 [1]): 10 nM
Structure (SMILES): Cc1c(C)c(CNc2ccccc2)c(C)c(C)c1CNc1ccccc1 [MSX-172]

melting point: 318 to 320 °C
Structure (SMILES): O=C(Nc1ccccc1)c1cc(C(=O)Nc2ccccc2)cc(C(=O)Nc2ccccc2)c1 [WZ20]

Structure (SMILES): c1cnc(NCc2ccc(CNc3ncccn3)cc2)nc1 [MSX-122, N-(4-((pyrimidin-2-ylamino)methyl)benzyl)-pyrimidin-2-amine]
Cmax ([3]; both sexes, cynomolgus monkey, in vivo, po, cynomolgus monkeys, 1,000 and 2,000 mg/kg orally once per day for 5 days): 5.1 µM to 12 µM and 1500 ng/mL to 3500 ng/mL | gross necropsy ([3]; cynomolgus monkeys dosed at 2000 mg/kg): no abnormalities or signs of toxicity | blood serum chemistry [3, 9]: no abnormalities | plasma concentrations maintained throughout the study [3, 9]: micromolar | signs or symptoms of toxicity [3, 9]: No drug-related signs or symptoms of toxicity | clinical observations (stool) ([3]; cynomolgus monkeys, 1,000 and 2,000 mg/kg, may have been caused by excipients): loose and watery stool in a subset of the animals | blood levels [4]: sustained blood levels | EC50 [5]: 0.6 nM | inhibitory effect on hERG channel currents (hERG channel): do not exert a significant inhibitory effect | inhibition at 1 µM (hERG channel (IKr)): 0.2% | concentration effective in counteracting/blocking SDF-1 function (SDF-1/CXCR4 [2]): 10 nM | effect of SDF-1 on cAMP reduction (SDF-1/CXCR4 [2]): blocked significantly in a dose-dependent manner | mutagenicity (In vitro Ames test): no evidence of mutagenicity | structural or numerical chromosome aberrations (CHO cells): no statistically significant increase in structural or numerical chromosome aberrations | plasma levels ([6]; for 10 hours): above 100 ng/ml and > 342 nM | Tmax ([6]; rat, plasma, oral, read-out: initial Tmax (converted)): ~30 min | hot flashes (hot flashes): resolved greatly | half lives [7, 10]: support once per day dosing | plasma concentrations [7, 10]: micromolar | pharmacokinetics / dose proportionality of plasma levels ([7]; female cynomolgus monkeys, oral 1, 5 and 10 mg/kg): sustained pharmacokinetics with plasma levels that were relatively dose proportional | signs or symptoms of toxicity during the study [8]: No signs or symptoms of toxicity | toxicity upon termination from blood serum chemistry or gross necropsy [8]: no toxicity was observed | plasma concentrations maintained throughout the study ([8]; after day 1): micromolar | Cmax ([8]; both sexes, rat, in vivo, po): 2000 ng/mL to 4000 ng/mL and 6.8 µM to 13.6 µM

melting point: 42 to 43 °C
Structure (SMILES): c1ccc(NCCNCc2ccc(CNCCNc3ccccc3)cc2)cc1 [WZ8]

IC50 (SDF-1/CXCR4 [1]): 100 nM
Structure (SMILES): c1ccc(OCc2ccc(CNc3ncccn3)cc2)nc1 [MSX-212]

IC50 (SDF-1/CXCR4 [1]): > 100 nM
Structure (SMILES): c1ccc(NCc2ccc(CNc3ccccc3)c3ccccc23)cc1 [MSX-175]

IC50 (SDF-1/CXCR4 [1]): 10 nM
Structure (SMILES): c1ccc(OCc2ccc(CNc3ncccn3)cc2)cc1 [MSX-209]

IC50 (SDF-1/CXCR4 [1]): 100 nM
Structure (SMILES): O=C(O)c1cccc(NCc2ccc(CNc3cccc(C(=O)O)c3)cc2)c1 [MSX-214]

melting point: 126 to 127 °C
Structure (SMILES): c1ccc(NCc2ccc(CNc3ccccc3)cc2)cc1 [WZ13]

IC50 (SDF-1/CXCR4 [1]): 10 nM
Structure (SMILES): COc1ccccc1NCc1ccc(CNc2ccccc2OC)cc1 [MSX-206]

IC50 (SDF-1/CXCR4 [1]): 10 nM
Structure (SMILES): Cc1ccc(NCc2ccc(CNc3ccc(C)cc3)cc2)cc1 [MSX-139]

IC50 (SDF-1/CXCR4 [1]): 10 nM
Structure (SMILES): c1cncc(NCc2ccc(CNc3cccnc3)cc2)c1 [MSX-163]

IC50 (SDF-1/CXCR4 [1]): 100 nM
Structure (SMILES): COCc1ccc(CNc2ncccn2)cc1 [MSX-208]

melting point: 278 to 281 °C (dec.)
Structure (SMILES): N=C(N)NCc1ccc(CNC(=N)N)cc1 [WZ5S]

IC50 (SDF-1/CXCR4 [1]): < 100 nM
Structure (SMILES): c1ccc(NCCc2ccc(CCNc3ccccc3)cc2)cc1 [MSX-170]
